Each structure is given as a SMILES string.

The target of this assay is T1, KRAS G12C 1-169, his-tagged protein, GDP-loaded (Homo sapiens, UniProt P01116, G12C).
T1 construct: KRAS G12C 1-169, his-tagged protein, GDP-loaded
The experiment in a line: Biochemical assay: covalent binding to KRAS G12C analyzed by mass spectrometry. How it is done:
Compounds were tested for activity as follows:
Compounds were diluted to 50× final test concentration in DMSO in 96-well storage plates. […] Reactions were mixed carefully and thoroughly by pipetting up/down with a 200 μl multi-channel pipettor. […] 5 μl of 2% formic acid (Fisher cat#A117) in DI H2O was then added to each well followed by mixing with a pipette. The plate was then resealed with aluminum seal and stored on dry ice until analyzed as described below.
The above described assays were analyzed by mass spectrometry according to the following procedure:
The MS instrument is set to positive polarity, 2 GHz resolution, and low mass (1700) mode and allowed to equilibrate for 30 minutes. The instrument is then calibrated, switched to acquisition mode and the appropriate method loaded.
After another 30 minute equilibration time, a blank batch (i.e., buffer) is run to ensure equipment is operating properly. The samples are thawed at 37° C. for 10 minutes, briefly centrifuged, and transfer to the bench top. Wells A1 and H12 are spiked with 1 μL 500 μM internal standard peptide, and the plates centrifuged at 2000×g for 5 minutes. The method is then run and masses of each individual well recorded.
The masses (for which integration data is desired) for each well are pasted into the platemap and exported from the analysis. Masses for the internal standards are exported as well. The data at 50 ppm is extracted for the +19 charge state, and identity of well A1 is assigned using the internal standard spike and integrated. Peak data is exported as a TOF list and the above steps are repeated individually, for the +20, 21, 22, 23, 24, and 25 charge states.

Setting [1] is: compounds 48-246, measured at 2 h.
[2] abbreviates: compounds 1-47, measured at 24 h.
The mark [3] stands for this setting: compounds 247-342, measured at 30 min.

T1 sequence (P01116 1-169 isoform P01116-2 G12C): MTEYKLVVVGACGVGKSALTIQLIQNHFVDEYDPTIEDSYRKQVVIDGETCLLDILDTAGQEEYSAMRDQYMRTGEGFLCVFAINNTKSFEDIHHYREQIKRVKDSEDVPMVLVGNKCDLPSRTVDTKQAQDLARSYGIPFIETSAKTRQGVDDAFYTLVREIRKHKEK

Consider `C=CC(=O)N1CCN(c2ncnc3cc(-c4cccc5c4CCC(=O)N5)c(Cl)cc23)CC1` [Compound I-205, 5-(4-(4-acryloylpiperazin-1-yl)-6-chloroquinazolin-7-yl)-3,4-dihydroquinolin-2(1H)-one], for which, under setting [1], the Binding % entry is “+ (+indicates binding activity from 5% to 25%)”.
On to `CN(C)C/C=C/C(=O)N1CCN(c2ncnc3c(F)c(-c4ccccc4F)c(-c4ccccc4F)cc23)CC1` [Compound I-230, (E)-4-(dimethylamino)-1-(4-(8-fluoro-6,7-bis(2-fluorophenyl)quinazolin-4-yl)piperazin-1-yl)but-2-en-1-one], for which, under setting [1], the Binding % result is recorded as “+ (+indicates binding activity from 5% to 25%)”.
For `C=CC(=O)N1CCN(c2ncnc3cc(Cl)c(-c4cccs4)cc23)CC1` [Compound I-21, 1-(4-(7-chloro-6-(thiophen-2-yl)quinazolin-4-yl)piperazin-1-yl)prop-2-en-1-one], the Binding % entry under setting [2] was “+++ (+++indicates binding activity greater than 50% and up to 75%)”.
`C=CC(=O)N1CCN(c2ncnc3cc(Cl)c(-c4ccc(Cl)cc4)cc23)CC1CO` (centres unmarked) [Compound I-46, 1-(4-(7-chloro-6-(4-chlorophenyl)quinazolin-4-yl)-2-(hydroxymethyl)piperazin-1-yl)prop-2-en-1-one]: the Binding % result under setting [2] was “++++ (++++indicates binding activity greater than 75%)”.
For `C=CC(=O)N1CCN(c2ncnc3cc(Cl)c(C4CC4)cc23)CC1C#N` (centres unmarked) [Compound I-55, 1-acryloyl-4-(7-chloro-6-cyclopropylquinazolin-4-yl)piperazine-2-carbonitrile], the Binding % result under setting [1] was “++++ (++++indicates binding activity greater than 75%)”.
Regarding `C=CC(=O)N1CCN(c2ncnc3cc(Cl)c(-c4ccccc4C#N)cc23)CC1` [Compound I-8, 2-(4-(4-acryloylpiperazin-1-yl)-7-chloroquinoazlin-6-yl)benzonitrile], the Binding % result under setting [2] was “++ (++indicates binding activity greater than 25% and up to 50%)”.
Consider `C=CC(=O)N1CCN(c2ncnc3cc(-c4ccccc4C(F)(F)F)c(Cl)cc23)CC1C` (centres unmarked) [Compound I-124, 1-(4-(6-chloro-7-(2-(trifluoromethyl)phenyl)quinazolin-4-yl)-2-methylpiperazin-1-yl)prop-2-en-1-one], for which, under setting [1], the Binding % entry is “+++ (+++indicates binding activity greater than 50% and up to 75%)”.
As to `CN(C)C/C=C/C(=O)N1CCN(c2ncnc3cc(-c4ccc(F)cc4F)c(Cl)cc23)CC1` [Compound I-219, (E)-1-(4-(6-chloro-7-(2,4-difluorophenyl)quinazolin-4-yl)piperazin-1-yl)-4-(dimethylamino)but-2-en-1-one], the Binding % result under setting [1] is “+ (+indicates binding activity from 5% to 25%)”.
For `C=CC(=O)N1CCN(c2nc(=O)[nH]c3cc(-c4c(C)ccc5[nH]ncc45)c(Cl)cc23)CC1` [Compound 326, 4-(4-acryloylpiperazin-1-yl)-6-chloro-7-(5-methyl-1H-indazol-4-yl)quinazolin-2(1H)-one], the Binding % result under setting [3] is reported as “+ (+indicates binding activity from 5% to 25%)”.
`C=CC(=O)N1CCN(c2ncnc3cc(Cl)c(-c4cccc(Cl)c4)cc23)CC1` [Compound I-5, 1-(4-(7-chloro-6-(3-chlorophenyl)quinazolin-4-yl)piperazin-1-yl)prop-2-en-1-one]: the Binding % entry under setting [2] was “+++ (+++indicates binding activity greater than 50% and up to 75%)”.
For the molecule `C=CC(=O)NC1CN(c2ncnc3cc(Cl)c(-c4ccccc4Cl)cc23)C1` [Compound I-29, N-(1-(7-chloro-6-(2-chlorophenyl)quinazolin-4-yl)azetidin-3-yl)acrylamide], the Binding % entry under setting [2] is recorded as “+ (+indicates binding activity from 5% to 25%)”.
Turning to `C=CC(=O)N1CCN(c2c(C#N)cnc3cc(-c4ccccc4F)c(Cl)cc23)CC1` [Compound I-127], the Binding % entry under setting [1] is listed as “++++ (++++indicates binding activity greater than 75%)”.
`C=CC(=O)N1CCN(c2ncnc3c(F)c(-c4c(C)ccc5[nH]ncc45)c(F)cc23)CC1` [Compound 297, 1-(4-(6,8-difluoro-7-(5-methyl-1H-indazol-4-yl)quinazolin-4-yl)piperazin-1-yl)prop-2-en-1-one]: under setting [3], the Binding % entry is reported as “+ (+indicates binding activity from 5% to 25%)”.
Consider `C=CC(=O)N1CC(N2CCN(C(=O)CN3CC(=O)Nc4ccccc43)CC2)C1` [II-42, 4-(2-(4-(1-acryloylazetidin-3-yl)piperazin-1-yl)-2-oxoethyl)-3,4-dihydroquinoxalin-2(1H)-one], for which the Binding % entry (determined at 24 hrs) is on record as “+ (+indicates binding activity from 5% to 15%)”.
`C=CS(=O)(=O)N1CCN(C2CN(C(=O)CNc3cc(Cl)c(Cl)cc3O)C2)CC1` [II-40, 2-(4,5-dichloro-2-hydroxyphenylamino)-1-(3-(4-(vinylsulfonyl)-piperazin-1-yl)azetidin-1-yl)ethanone]: the Binding % result (determined at 24 hrs) is recorded as “++++ (++++indicates binding activity greater than 50%)”.
With `C=CC(=O)N1CCN(c2ncnc3cc(-c4ccc(F)cc4F)c(C(F)(F)F)cc23)CC1` [Compound I-204, 1-(4-(7-(2,4-difluorophenyl)-6-(trifluoromethyl)quinazolin-4-yl)piperazin-1-yl)prop-2-en-1-one], the Binding % entry under setting [1] is “+++ (+++indicates binding activity greater than 50% and up to 75%)”.
Take `C=CC(=O)N1CCC(N2CCN(C(=O)CNc3cc(I)c(Cl)cc3O)CC2)C1` (centres unmarked) [II-11]: the Binding % entry (determined at 24 hrs) is on record as “++++ (++++indicates binding activity greater than 50%)”.
For the molecule `C=CC(=O)N1CCN(c2ncnc3cc(Cl)c(-c4ccc(Cl)cc4)cc23)CC1CN(C)C` (centres unmarked) [Compound I-60, 1-(4-(7-chloro-6-(4-chlorophenyl)quinazolin-4-yl)-2-((dimethylamino)methyl)piperazin-1-yl)prop-2-en-1-one], the Binding % result under setting [1] is “+ (+indicates binding activity from 5% to 25%)”.
Take `C=CC(=O)N1CCN(c2nccc3cc(Cl)ccc23)CC1C#N` (centres unmarked) [Compound I-61, 1-acryloyl-4-(6-chloroisoquinolin-1-yl)piperazine-2-carbonitrile]: under setting [1], the Binding % entry was “+ (+indicates binding activity from 5% to 25%)”.
For the molecule `C=CC(=O)N1CCN(c2nc(OCCCN(C)C)nc3cc(-c4c(C)ccc5[nH]ncc45)c(Cl)cc23)CC1` [Compound 329, 1-(4-(6-chloro-2-(3-(dimethylamino)propoxy)-7-(5-methyl-1H-indazol-4-yl)quinazolin-4-yl)piperazin-1-yl)prop-2-en-1-one], the Binding % result under setting [3] was “++ (++indicates binding activity greater than 25% and up to 50%)”.
For `C=CC(=O)N1CCN(c2ncnc3cc(-c4ccccc4)c(C4CC4)cc23)CC1` [Compound I-86, 1-(4-(6-cyclopropyl-7-phenylquinazolin-4-yl)piperazin-1-yl)prop-2-en-1-one], under setting [1], the Binding % result is reported as “+ (+indicates binding activity from 5% to 25%)”.
On to `C=CC(=O)N1CCN(c2ncnc3cc(-c4c(F)ccc(F)c4O)c(Cl)cc23)CC1` [Compound I-216, 1-(4-(6-chloro-7-(3,6-difluoro-2-hydroxyphenyl)quinazolin-4-yl)piperazin-1-yl)prop-2-en-1-one], for which the Binding % result under setting [1] is “+ (+indicates binding activity from 5% to 25%)”.
Take `C=CC(=O)N1CCN(c2cnnc3cc(-c4c(O)cccc4F)c(Cl)cc23)CC1` [Compound I-231, 1-(4-(6-chloro-7-(2-fluoro-6-hydroxyphenyl)ciinolin-4-yl)piperazin-1-yl)prop-2-en-1-one]: under setting [1], the Binding % result is “+++ (+++indicates binding activity greater than 50% and up to 75%)”.
With `C=CC(=O)N1CCN(c2ncnc3cc(-c4cccc5cn[nH]c45)c(Cl)cc23)CC1` [Compound I-152, 1-(4-(6-chloro-7-(1H-indazol-7-yl)quinazolin-4-yl)piperazin-1-yl)prop-2-en-1-one], the Binding % result under setting [1] was “+++ (+++indicates binding activity greater than 50% and up to 75%)”.
Take `C=CC(=O)N1CCN(c2c(C#N)cnc3cc(-c4c(O)cccc4F)c(Cl)cc23)CC1` [Compound I-220, 4-(4-acryloylpiperazin-- yl)-6-chloro-7-(2-fluoro-6-hydroxyphenyl)quinoline-3-carbonitrile]: the Binding % entry under setting [1] is “+++ (+++indicates binding activity greater than 50% and up to 75%)”.
With `CC(C)(/C=C(\C#N)C(=O)N1CCN(c2ncnc3cc(-c4ccccc4F)c(Cl)cc23)CC1)CO` [Compound I-261, (E)-2-(4-(6-chloro-7-(2-fluorophenyl)quinazolin-4-yl)piperazine-1-carbonyl)-5-hydroxy-4,4-dimethylpent-2-enenitrile], the Binding % entry under setting [3] is recorded as “+ (+indicates binding activity from 5% to 25%)”.
As to `C=CC(=O)N1CCN(c2ncnc3cc(Cl)c(-c4ccc(Cl)cc4)cc23)CC1CCO` (centres unmarked) [Compound I-62, 1-(4-(7-chloro-6-(4-chlorophenyl)quinazolin-4-yl)-2-(2-hydroxyethyl)piperazin-1-yl)prop-2-en-1-one], the Binding % result under setting [1] was “+ (+indicates binding activity from 5% to 25%)”.
As for `C=CC(=O)N1CCN(c2ncnc3cc(-c4ccccc4F)c(Cl)cc23)CC1CC#N` (centres unmarked) [Compound I-106], under setting [1], the Binding % entry is given as “++++ (++++indicates binding activity greater than 75%)”.
For `C=CC(=O)N1CCN(c2ncnc3cc(-c4ccc(F)cc4F)c(Cl)cc23)CC1C#N` (centres unmarked) [Compound I-145, 1-acryloyl-4-(6-chloro-7-(2,4-difluorophenyl)quinazolin-4-yl)piperazine-2-carbonitrile], the Binding % entry under setting [1] was “++++ (++++indicates binding activity greater than 75%)”.

The record behind these values is patent US10111874B2, “Combination therapies for treatment of cancer” (Araxes Pharma LLC, priority 2014, dated 2018).
